Common to all, as to assay: relative viability (nuclei count vs DMSO), 5 days (fraction); higher = more cells survive
Compound in assay [1]: CN(C/C=C/C1=CC=C(C=C1)Cl)CC2=CC=CC=C2N(CCO)S(=O)(=O)C3=CC=C(C=C3)OC [KN-93] + O=C(c1cc(Cc2n[nH]c(=O)c3ccccc23)ccc1F)N1CCN(C(=O)C2CC2)CC1 [Olaparib] (partner 8 µM)
In outline:
(§1)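 Lung cancer cell lines, seeded in 1536-well plates, were treated the following day by pin tool with a single drug or with five library-drug doses (not always all listed) in √10 steps on top of a fixed anchor-drug dose. Cells were fixed and nuclei stained in one step after 5 days, and nuclei were counted. Relative viability is the nuclei count for treated wells divided by that for vehicle wells, reported as medians of duplicate plates.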

Compound in assay [2]: CN(C/C=C/C1=CC=C(C=C1)Cl)CC2=CC=CC=C2N(CCO)S(=O)(=O)C3=CC=C(C=C3)OC [KN-93] + Cc1nc(Nc2ncc(C(=O)Nc3c(C)cccc3Cl)s2)cc(N2CCN(CCO)CC2)n1 [Dasatinib] (partner 0.075 µM)
In outline: as §1

Compound in assay [3]: CN(C/C=C/C1=CC=C(C=C1)Cl)CC2=CC=CC=C2N(CCO)S(=O)(=O)C3=CC=C(C=C3)OC [KN-93] + COc1cc2c(Oc3ccc(NC(=O)C4(C(=O)Nc5ccc(F)cc5)CC4)cc3F)ccnc2cc1OCCCN1CCOCC1 [Foretinib] (partner 0.25 µM)
In outline: as §1

Compound in assay [4]: CN(C/C=C/C1=CC=C(C=C1)Cl)CC2=CC=CC=C2N(CCO)S(=O)(=O)C3=CC=C(C=C3)OC [KN-93] + Nc1ncn([C@H]2C[C@H](O)[C@@H](CO)O2)c(=O)n1 [Decitabine] (partner 2 µM)
In outline: as §1

Compound in assay [5]: CN(C/C=C/C1=CC=C(C=C1)Cl)CC2=CC=CC=C2N(CCO)S(=O)(=O)C3=CC=C(C=C3)OC [KN-93] + CC1(C)CCC(c2ccc(Cl)cc2)=C(CN2CCN(c3ccc(C(=O)NS(=O)(=O)c4ccc(N[C@H](CCN5CCOCC5)CSc5ccccc5)c(S(=O)(=O)C(F)(F)F)c4)cc3)CC2)C1 [Navitoclax] (partner 0.5 µM)
The essentials:
as §1

In the supplement of paper PMC10307832 one finds relative viability data, which are given here for 4 cell lines.

On to NCI-H1915, for which the relative viability in assay [1] (first compound 0.08 µM) came out at 0.248; in assay [1] (first compound 0.253 µM) it was 0.264; in assay [1] (first compound 2.53 µM), 0.276; in assay [1] (first compound 8 µM) it was 0.255; in assay [2] (first compound 0.08 µM), 0.354; in assay [2] (first compound 0.253 µM) it was 0.343. For the same cell line, the relative viability in assay [2] (first compound 2.53 µM) is 0.305; in assay [2] (first compound 8 µM) it was 0.225; in assay [3] (first compound 0.08 µM), 0.952; in assay [3] (first compound 0.253 µM), 1.23; in assay [3] (first compound 2.53 µM), 1.25; in assay [3] (first compound 8 µM), 0.912. Moreover, the relative viability amounted to 0.274 in assay [4] (first compound 0.08 µM); 0.261 in assay [4] (first compound 0.253 µM); 0.26 in assay [4] (first compound 2.53 µM); 0.246 in assay [4] (first compound 8 µM); 0.736 in assay [5] (first compound 0.08 µM); 0.813 in assay [5] (first compound 0.253 µM). Besides, the relative viability in assay [5] (first compound 2.53 µM) was 0.823; in assay [5] (first compound 8 µM), 0.742.
EMC-BAC-2: the relative viability in assay [1] (first compound 0.08 µM) is 0.498; in assay [1] (first compound 0.253 µM), 0.441; in assay [1] (first compound 2.53 µM) it was 0.507; in assay [1] (first compound 8 µM), 0.431; in assay [2] (first compound 0.08 µM) it was 0.299; in assay [2] (first compound 0.253 µM), 0.366. In addition, the relative viability stood at 0.3 in assay [2] (first compound 2.53 µM); 0.272 in assay [2] (first compound 8 µM); 0.962 in assay [3] (first compound 0.08 µM); 1.05 in assay [3] (first compound 0.253 µM); 0.938 in assay [3] (first compound 2.53 µM); 0.752 in assay [3] (first compound 8 µM). Also, the relative viability in assay [4] (first compound 0.08 µM) is 0.996; in assay [4] (first compound 0.253 µM), 0.98; in assay [4] (first compound 2.53 µM) it was 0.969; in assay [4] (first compound 8 µM), 0.693; in assay [5] (first compound 0.08 µM), 0.845; in assay [5] (first compound 0.253 µM) it was 1.32. Also, the values for the relative viability in assay [5] (first compound 2.53 µM) and in assay [5] (first compound 8 µM) were 1.37 and 1.05, respectively.
HCC-15: the relative viability came to 0.658 in assay [1] (first compound 0.08 µM); 0.731 in assay [1] (first compound 0.253 µM); 0.719 in assay [1] (first compound 2.53 µM); 0.522 in assay [1] (first compound 8 µM); 0.59 in assay [2] (first compound 0.08 µM); 0.535 in assay [2] (first compound 0.253 µM). The relative viability in assay [2] (first compound 2.53 µM) was determined as 0.581; in assay [2] (first compound 8 µM), 0.447; in assay [3] (first compound 0.08 µM) it was 0.914; in assay [3] (first compound 0.253 µM), 1.12; in assay [3] (first compound 2.53 µM), 1.11; in assay [3] (first compound 8 µM), 0.807. The relative viability in assay [4] (first compound 0.08 µM) is 0.546; in assay [4] (first compound 0.253 µM), 0.62; in assay [4] (first compound 2.53 µM) it was 0.707; in assay [4] (first compound 8 µM), 0.309; in assay [5] (first compound 0.08 µM) it was 0.539; in assay [5] (first compound 0.253 µM) it was 0.718. The relative viability stood at 0.794 in assay [5] (first compound 2.53 µM) and 0.579 in assay [5] (first compound 8 µM).
In the case of EPLC-272H, the relative viability in assay [1] (first compound 0.08 µM) turned out to be 0.466; in assay [1] (first compound 0.253 µM), 0.681; in assay [1] (first compound 2.53 µM), 0.913; in assay [1] (first compound 8 µM) it was 0.267; in assay [2] (first compound 0.08 µM), 0.32; in assay [2] (first compound 0.253 µM), 0.452. Besides, the relative viability worked out at 0.274 in assay [2] (first compound 2.53 µM); 0.206 in assay [2] (first compound 8 µM); 0.621 in assay [3] (first compound 0.08 µM); 0.762 in assay [3] (first compound 0.253 µM); 0.573 in assay [3] (first compound 2.53 µM); 0.389 in assay [3] (first compound 8 µM). In addition, the relative viability was found to be 0.372 in assay [4] (first compound 0.08 µM); 0.368 in assay [4] (first compound 0.253 µM); 0.383 in assay [4] (first compound 2.53 µM); 0.309 in assay [4] (first compound 8 µM); 0.945 in assay [5] (first compound 0.08 µM); 1.27 in assay [5] (first compound 0.253 µM). Also, the relative viability in assay [5] (first compound 2.53 µM) came out at 1.18; in assay [5] (first compound 8 µM), 0.849.
